Consider 18 compounds from ChEMBL document CHEMBL1141470, “4-(Heteroarylaminomethyl)-N-(2-aminophenyl)-benzamides and their analogs as a novel class of histone deacetylase inhibitors” (Bioorg Med Chem Lett, 2008).

Activity calls are given as the source filed them. The rule behind the calls is not given here.

What is called IC50 is the concentration that inhibits the measured activity by half. The term EC50 denotes the midpoint of the concentration-response curve.

In assay [1] the target is T1, Histone deacetylase 1 (Homo sapiens, UniProt Q13547). The assay can be described thus: Inhibition of recombinant HDAC1.
T1 sequence (Q13547 whole entry): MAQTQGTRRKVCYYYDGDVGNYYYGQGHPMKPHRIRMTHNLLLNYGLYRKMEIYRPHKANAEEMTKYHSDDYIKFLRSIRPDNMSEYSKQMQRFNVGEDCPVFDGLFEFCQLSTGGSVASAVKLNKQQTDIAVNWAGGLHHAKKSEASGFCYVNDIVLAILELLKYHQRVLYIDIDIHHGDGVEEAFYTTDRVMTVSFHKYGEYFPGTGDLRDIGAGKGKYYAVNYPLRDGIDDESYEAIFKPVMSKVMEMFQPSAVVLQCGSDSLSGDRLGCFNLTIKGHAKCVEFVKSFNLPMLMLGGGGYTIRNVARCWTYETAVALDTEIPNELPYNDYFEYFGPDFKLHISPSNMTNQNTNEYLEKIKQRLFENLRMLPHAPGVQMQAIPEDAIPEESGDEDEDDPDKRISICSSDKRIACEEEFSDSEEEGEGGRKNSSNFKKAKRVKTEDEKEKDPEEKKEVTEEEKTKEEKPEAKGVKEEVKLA
The subject of assay [2] is HCT-116. The assay can be described thus: Cytotoxicity against human HCT116 cells by MTT assay. It is filed as functional, cell-based. (In general: Tetrazolium dyes change colour on reduction, which living cells bring about.)
The test system of the next assay is HMEC. The assay can be described thus: Cytotoxicity against human HMEC cells by MTT assay. It is filed as cell-based.
The target of assay [3] is T1, Histone deacetylase 1. The assay can be described thus: Inhibition of HDAC1 in human T24 cells assessed as induction of histone H4 acetylation after 16 hrs relative to MS-275. It is filed as cell-based, T-24.
Another assay has as its system T-24. The assay can be described thus: Induction of p21WAF1/CIP1 expression in human T24 cells. It is filed as functional, cell-based.
Assay [4] concerns HCT-116. The assay can be described thus: Cell cycle arrest in human HCT116 cells by accumulation at G2/M phase. The assay is classed as functional, cell-based.
Assay [5] has as its system SW48. The assay can be described thus: Antitumor activity in human SW48 cells xenografted mouse assessed as tumor growth inhibition at 20 mg/kg, ip qd after 14 days relative to control. It is filed as functional. Further details: scale not given: the % may be the effect or the level left. Particulars: route intraperitoneal. A general note: A xenograft is tissue or cells of one species grown in another, often human tumour cells in immunodeficient mice.

The subject of assay [6] is SW48. The assay can be described thus: Antitumor activity in human SW48 cells xenografted mouse assessed as tumor growth inhibition at 90 mg/kg, po qd after 14 days relative to control. The assay is classed as functional. Further details: scale not given: the % may be the effect or the level left.
For assay [7], the system named is A549. The assay can be described thus: Antitumor activity in human A549 cells xenografted mouse assessed as tumor growth inhibition at 20 mg/kg, ip qd after 14 days relative to control. The assay is classed as functional. The arrangement: scale not given: the % may be the effect or the level left. Particulars: route intraperitoneal.
Assay [8] has as its system A549. The assay can be described thus: Antitumor activity in human A549 cells xenografted mouse assessed as tumor growth inhibition at 90 mg/kg, po qd after 14 days relative to control. It is filed as functional. The arrangement: scale not given: the % may be the effect or the level left.
In another assay the test system is PANC-1. The assay can be described thus: Antitumor activity in human PANC1 cells xenografted mouse assessed as tumor growth inhibition at 20 mg/kg, ip qd after 14 days relative to control. The assay is classed as functional. Further details: scale not given: the % may be the effect or the level left. The following applies: route intraperitoneal.
The next assay relates to COLO 205. The assay can be described thus: Antitumor activity in human COLO205 cells xenografted mouse assessed as tumor growth inhibition at 90 mg/kg, po qd after 14 days relative to control. Further details: scale not given: the % may be the effect or the level left. It is filed as functional.

`Nc1ccccc1NC(=O)c1ccc(CNc2cc(-c3ccccc3)[nH]n2)cc1`: the IC50 on Histone deacetylase 1 [1] was found to be 70 nM; with HCT-116 [2] it was 300 nM.
`Nc1ccccc1NC(=O)c1ccc(CSc2nc3ccccc3[nH]2)cc1`: the IC50 at Histone deacetylase 1 [1] came out at 90 nM; in the assay on HCT-116 [2], 300 nM; with HMEC, 14 µM. Moreover, on Histone deacetylase 1 [3], the EC50 is under 1000 nM.
The corresponding values for `Nc1ccccc1NC(=O)c1ccc(CSc2nc3ccc(NCc4ccccn4)cc3s2)cc1` are 70 nM, 1000 nM, 8 µM and 3000 nM.
As to `Cn1ccnc1SCc1ccc(C(=O)Nc2ccccc2N)cc1`, the results for the 50% inhibitory concentration (IC50) on Histone deacetylase 1 [1] and with HCT-116 [2] were 1000 nM and 5000 nM, respectively.
`Nc1ccccc1NC(=O)c1ccc(CNc2nc3ccccc3[nH]2)cc1`: the figures for the IC50 on Histone deacetylase 1 [1], in the assay on HCT-116 [2] and in the assay on HMEC were 100 nM, 300 nM and 27 µM, respectively. For the same compound, the EC50 at Histone deacetylase 1 [3] is 1000 nM.
For `Nc1ccccc1NC(=O)c1ccc(CSc2nc3ccccc3s2)cc1` the same measures were 100 nM, 800 nM, 3 µM and 3000 nM.
As to `Nc1ccccc1NC(=O)c1ccc(CSc2nc3ccc(NCc4cccnc4)cc3s2)cc1`, the IC50 at Histone deacetylase 1 [1] is 800 nM; in the assay with HCT-116 [2] it was 1000 nM; with HMEC it was over 50 µM. Further, at Histone deacetylase 1 [3], the EC50 was 2000 nM.
As to `Nc1ccccc1NC(=O)c1ccc(CNc2nc3ccc(Br)cc3s2)cc1`, the figures for the IC50 at Histone deacetylase 1 [1], in the assay on HCT-116 [2] and with HMEC were 50 nM, 400 nM and 6 µM, respectively. The EC50 on Histone deacetylase 1 [3] is 2000 nM.
For `Nc1ccccc1NC(=O)c1ccc(CSc2nc3ccc(NCCN4CCOCC4)cc3s2)cc1` the same measures were 70 nM, 200 nM, 15 µM and 5000 nM.
On to `Nc1ccccc1NC(=O)c1ccc(CNc2ncc(Br)s2)cc1`, for which the IC50 at Histone deacetylase 1 [1] and in the assay on HCT-116 [2] was 400 nM each time.
Turning to `Nc1ccccc1NC(=O)c1ccc(CSc2nnc(-c3ccccc3)o2)cc1`, the IC50 on Histone deacetylase 1 [1] came out at 80 nM; in the assay on HCT-116 [2], 400 nM.
For `Nc1ccccc1NC(=O)c1ccc(CNc2nc3cc(Cl)ccc3o2)cc1`, the results for the IC50 on Histone deacetylase 1 [1], in the assay with HCT-116 [2] and in the assay on HMEC were 100 nM, 200 nM and 17 µM, respectively. Also, the EC50 at Histone deacetylase 1 [3] was 1000 nM.
Consider `Nc1ccccc1NC(=O)c1ccc(CNc2ncc(-c3ccc(Cl)cc3)s2)cc1`, for which the 50% inhibitory concentration (IC50) at Histone deacetylase 1 [1] and with HCT-116 [2] was 300 nM throughout.
For `COc1ccc2nc(NCc3ccc(C(=O)Nc4ccccc4N)cc3)sc2c1`, the 50% inhibitory concentration (IC50) on Histone deacetylase 1 [1] is 30 nM; with HCT-116 [2], 200 nM; with HMEC it was 5 µM. Further, the EC50 on Histone deacetylase 1 [3] amounted to 1000 nM; with T-24, 800 nM. The outcome with HCT-116 [4] was Active.
In the case of `CSc1nnc(NCc2ccc(C(=O)Nc3ccccc3N)cc2)[nH]1`, the IC50 amounted to 200 nM on Histone deacetylase 1 [1] and 600 nM with HCT-116 [2].
For `Nc1ccccc1NC(=O)c1ccc(CSc2ncc[nH]2)cc1` the same measures were 500 nM and 5000 nM.
For `Nc1ccccc1NC(=O)c1ccc(CNc2nc3ccc(OCCN4CCOCC4)cc3s2)cc1`, the half-maximal inhibitory concentration (IC50) at Histone deacetylase 1 [1] stood at 60 nM; in the assay with HCT-116 [2] it was 200 nM; in the assay on HMEC, 15 µM. Also, the concentration giving a half-maximal response (EC50) on Histone deacetylase 1 [3] and with T-24 was 1000 nM in each case. In addition, the Activity is reported as 74% in the assay with SW48 [5]; 72% in the assay with SW48 [6]; 65% in the assay with A549 [7]; 65% with A549 [8]; 70% with PANC-1; 62% in the assay on COLO 205. The outcome with HCT-116 [4] was Active.
On to `COc1ccc2nc(SCc3ccc(C(=O)Nc4ccccc4N)cc3)[nH]c2c1`, for which the IC50 at Histone deacetylase 1 [1] came out at 70 nM; in the assay on HCT-116 [2] it was 200 nM; in the assay on HMEC, 10 µM. The EC50 at Histone deacetylase 1 [3] was determined as 1000 nM; with T-24, 600 nM. In addition, the outcome in the assay on HCT-116 [4] was Active.
